Experimental data: US20200055871A1, “ACTIVATORS OF THE RETINOIC ACID INDUCIBLE GENE "RIG-I" PATHWAY AND METHODS OF USE THEREOF” (Kineta Immuno-Oncology LLC, priority 2018, published 2020)

Key:
[1] = test system: IRF3 signaling pathway in THP1-Lucia™ ISG cells; assay: THP1-Lucia ISG reporter assay: induction of IRF3-dependent gene expression (secreted luciferase); assay type: cell-based, human; settings: Homo sapiens, THP1-Lucia ISG, PMA-differentiated cells, 18 h after stimulation, read-out: fold increase of IRF3-dependent luciferase activity over background, THP1 ISG; for fold induction at 10 µM: 10 μM compound; for fold induction at 20 µM: 20 μM compound (*)
Procedure: The compounds were evaluated in the THP1-Lucia™ ISG (interferon stimulated genes) reporter assay to determine if the compounds activate the IRF3 signaling pathway. The THP1-Lucia™ cells (InvivoGen) express the secreted luciferase (Lucia) reporter gene under the control of an IRF-inducible promoter. The reporter cell line was developed from human monocytic leukemia THP-1 cells.
The promoter was comprised of five IFN-stimulated response elements (ISRE) fused to an ISG54 minimal promoter which is unresponsive to NF-kB or AP-1 pathways. […] The IRF3-deficient THP1-Lucia™ ISG IRF3−/−reporter cell line was generated by CRISPR technology from the parent THP1-Lucia™ ISG reporter cell line.
THP1-Lucia™ ISG cells and IRF3-deficient THP1-Lucia™ ISG IRF3−/−cells were differentiated with PMA (100 ng/ml) and stimulated with compounds at the indicated concentrations (5 to 20 μM), positive control, or not treated (background). Luciferase secretion was quantified using the QUANTI-Luc luciferase assay system (InvivoGen) 18 h after stimulation. Data are shown as fold increase luciferase activity over background in Table 7 and represent the IRF3-dependent ISG54 promoter activity by the THP1-Lucia™ ISG cells in response to compounds. […] The fold increase of compounds (10 μM, *20 μM, **5 μM) induced IRF3 dependent luciferase activity is indicated as follows: “≠” indicates less than 2.4 fold increase; “+” indicates a 2.4-4.9 fold increase; “++” indicates a 5-9.9 fold increase; “+++” indicates a 10-19 fold increase; “++++” indicates a 20-39 fold increase; “+++++” indicates greater than or equal to 40 fold increase.

[2] = test system: murine CT26 colon carcinoma cells; assay: RIG-I dependent CXCL10 secretion by CT26 cells (ELISA); assay type: cell-based; settings: supernatant 24 h after stimulation
Procedure: (§1) The CT26 murine colon carcinoma cell line (ATCC) was used to evaluate the induction of CXCL10 secretion. CXCL10 is an important chemokine in tumor immune biology that recruits tumor-specific T cells to the tumor. To confirm that compound-mediated CXCL10 production was RIG-I specific, RIG-1 deficient CT2-RIG-I−/−cells were generated by Kineta Inc. using CRISPR technology.
(§2) CT26 cells were seeded at a density of 1×10^4 cells per well on a 96-well tissue culture plate in 100 μL of cell culture and cells were incubated at 37° C. and 5% CO2 for 24 hr. Next, CT26 cells were treated with compounds at the indicated concentrations. CXCL10 was quantified by ELISA from supernatants taken 24 h after compound stimulation by use of the CXCL10 Duo Set ELISA kit (Cat #DY466, R&D, Minneapolis, Minn., USA) according to the manufacturer's instructions.
(§3) CXCL10 secretion by CT26 cells in response to compounds (in an amount of 5 to 20 μM) of the present disclosure is shown in Table 8. The compound-induced CXCL10 production was RIG-I dependent, since none of the compounds mediated CXCL10 secretion in RIG-I deficient CT26 RIG-I−/−cells (about 0 pg/mL of CXCL10, or below the level of quantitation). The compounds (10 μM, *20 μM, **5 μM) are indicated in the table as follows: “≠” indicates less than 100 pg/mL; “+” indicates 100-199 pg/mL; “++” indicates 200-399 pg/mL; “+++” indicates 400-799 pg/mL; “++++” indicates 800 to 1599 pg/mL; “+++++” indicates greater than or equal to 1600 pg/ml.

[3] = test system: RIG-I deficient CT26 RIG-I−/− cells; assay: CXCL10 secretion by RIG-I deficient CT26 RIG-I−/− cells (ELISA); assay type: cell-based, murine; settings: compound 5 to 20 μM, 24 h
Procedure: as §1, §2, §3

Compound	fold induction at 10 µM [1]	CXCL10 secretion, CT26 ([2]; 10 μM compound)	CXCL10 secretion, CT26 RIG-I−/− [3]	CXCL10 secretion, CT26 ([2]; 20 μM compound (*))	fold induction at 20 µM [1]
O=C(Nc1nc2ccc3scnc3c2s1)c1ccc2cc(OCCCCN3CCOCC3)ccc2c1 [Example 39, N-{3,10-dithia-5,12-diazatricyclo[7.3.0.0^2,^6]dodeca-1,4,6,8,11-pentaen-4-yl}-6-[4-(morpholin-4-yl)butoxy]naphthalene-2-carboxamide]	5 to 9.9	++ (200-399 pg/mL)	−		
O=C(Nc1nc2ccc3scnc3c2s1)c1cc2ccccc2cc1OCCCN1CCOCC1 [Example 1, N-{3,10-dithia-5,12-diazatricyclo[7.3.0.0^2,6]dodeca-1,4,6,8,11-pentaen-4-yl}-3-[3-(morpholin-4-yl)propoxy]naphthalene-2-carboxamide]	2.4 to 4.9	++++ (800 to 1599 pg/mL)	−		
COc1cc2ccccc2cc1C(=O)Nc1nc2ccc3scnc3c2s1 [Example 16, N-{3,10-dithia-5,12-diazatricyclo[7.3.0.0^2,^6]dodeca-1,4,6,8,11-pentaen-4-yl}-3-methoxynaphthalene-2-carboxamide]	10 to 19	++ (200-399 pg/mL)	−		
CCN(CCO)CCOc1cc2ccccc2cc1C(=O)Nc1nc2ccc3scnc3c2s1 [Example 45, N-{3,10-Dithia-5,12-diazatricyclo[7.3.0.0^2,6]dodeca-1,4,6,8,11-pentaen-4-yl}-3-{2-[ethyl(2-hydroxyethyl)amino]ethoxy}naphthalene-2-carboxamide carboxamide]	10 to 19	+++ (400-799 pg/mL)	−		
COc1nc2c(ccc3nc(NC(=O)c4cc5ccccc5cc4OCCN4CCOCC4)sc32)s1 [Example 29, N-{11-methoxy-3,10-dithia-5,12-diazatricyclo[7.3.0.0^2,^6]dodeca-1,4,6,8,11-pentaen-4-yl}-3-[2-(morpholin-4-yl)ethoxy]naphthalene-2-carboxamide]	10 to 19	+ (100-199 pg/mL)	−		
O=C(Nc1nc2ccc3scnc3c2s1)c1cc2ccsc2cc1OCCN1CCOCC1 [Example 42, N-{3,10-dithia-5,12-diazatricyclo[7.3.0.0^2,^6]dodeca-1,4,6,8,11-pentaen-4-yl}-6-[2-(morpholin-4-yl)ethoxy]-1-benzothiophene-5-carboxamide]	< 2.4		−	+* (100-199 pg/mL)	
O=C(Nc1nc2ccc3scnc3c2s1)c1ccc(-c2ccccc2)cc1OCCCCN1CCOCC1 [Example 38, N-{3,10-dithia-5,12-diazatricyclo[7.3.0.0^2,^6]dodeca-1,4,6,8,11-pentaen-4-yl}-3-[4-(morpholin-4-yl)butoxy]-[1,1′-biphenyl]-4-carboxamide]	5 to 9.9	+++ (400-799 pg/mL)	−		
CCN(CC)S(=O)(=O)c1ccc(C(=O)Nc2nc3ccc4sc(C)nc4c3s2)cc1 [Example 3, 4-(diethylsulfamoyl)-N-{11-methyl-3,10-dithia-5,12-diazatricyclo[7.3.0.0^2,^6]dodeca-1,4,6,8,11-pentaen-4-yl}benzamide]			−	++* (200-399 pg/mL)	5 to 9.9
O=C(Nc1nc2ccc3scnc3c2s1)c1cc2ccccc2cc1OCCC1CCOCC1 [Example 27, N-{3,10-dithia-5,12-diazatricyclo[7.3.0.0^2,^6]dodeca-1,4,6,8,11-pentaen-4-yl}-3-[2-(oxan-4-yl)ethoxy]naphthalene-2-carboxamide]		++ (200-399 pg/mL)	−		5 to 9.9
O=C(Nc1nc2ccc3scnc3c2s1)c1cc2ccccc2cc1OCCN1CCOCC1 [Example 24, N-{3,10-dithia-5,12-diazatricyclo[7.3.0.0^2,^6]dodeca-1,4,6,8,11-pentaen-4-yl}-3-[2-(morpholin-4-yl)ethoxy]naphthalene-2-carboxamide]	20 to 39	+++ (400-799 pg/mL)	−		
CSc1nc2c(ccc3nc(NC(=O)c4cc5ccccc5cc4OCCCN4CCOCC4)sc32)s1 [Example 36, N-[11-(methylsulfanyl)-3,10-dithia-5,12-diazatricyclo[7.3.0.0^2,^6]dodeca-1,4,6,8,11-pentaen-4-yl]-3-[3-(morpholin-4-yl)propoxy]naphthalene-2-carboxamide]	5 to 9.9	+++ (400-799 pg/mL)	−		
Cn1ccc2ccc(C(=O)Nc3nc4ccc5scnc5c4s3)cc21 [Example 20, N-{3,10-dithia-5,12-diazatricyclo[7.3.0.0^2,^6]dodeca-1,4,6,8,11-pentaen-4-yl}-1-methyl-1H-indole-6-carboxamide]	10 to 19	+++ (400-799 pg/mL)	−		
COc1nc2c(ccc3nc(NC(=O)c4cc5ccccc5cc4OCCCCN4CCOCC4)sc32)s1 [Example 32, N-{11-methoxy-3,10-dithia-5,12-diazatricyclo[7.3.0.0^2,^6]dodeca-1,4,6,8,11-pentaen-4-yl}-3-[4-(morpholin-4-yl)butoxy]naphthalene-2-carboxamide]	10 to 19	++ (200-399 pg/mL)	−		
O=C(Nc1nc2ccc3scnc3c2s1)c1ccc(Cl)c(C(F)(F)F)c1 [Example 7, 4-chloro-N-{3,10-dithia-5,12-diazatricyclo[7.3.0.0^2,^6]dodeca-1,4,6,8,11-pentaen-4-yl}-3-(trifluoromethyl)benzamide]	2.4 to 4.9	++++ (800 to 1599 pg/mL)	−		
COc1nc2c(ccc3nc(NC(=O)c4cc5ccccc5cc4OCCN4CCCCC4)sc32)s1 [Example 30, N-{11-methoxy-3,10-dithia-5,12-diazatricyclo[7.3.0.0^2,^6]dodeca-1,4,6,8,11-pentaen-4-yl}-3-[2-(piperidin-1-yl)ethoxy]naphthalene-2-carboxamide]	10 to 19	+++ (400-799 pg/mL)	−		
COc1nc2c(ccc3nc(NC(=O)c4ccc5ccccc5c4)sc32)s1 [Example 22, N-{11-methoxy-3,10-dithia-5,12-diazatricyclo[7.3.0.0^2,^6]dodeca-1,4,6,8,11-pentaen-4-yl}naphthalene-2-carboxamide]	20 to 39	++ (200-399 pg/mL)	−		
Cc1nc2c(ccc3nc(NC(=O)c4ccc5ccccc5c4)sc32)s1 [Example 23, N-{11-methyl-3,10-dithia-5,12-diazatricyclo[7.3.0.0^2,^6]dodeca-1,4,6,8,11-pentaen-4-yl}naphthalene-2-carboxamide]	5 to 9.9		−	+++++* (greater than or equal to 1600 pg/ml)	
CCc1nc2c(ccc3nc(NC(=O)c4ccc5ccccc5c4)sc32)s1 [Example 18, N-{11-ethyl-3,10-dithia-5,12-diazatricyclo[7.3.0.0^2,^6]dodeca-1,4,6,8,11-pentaen-4-yl}naphthalene-2-carboxamide]	20 to 39		−	+* (100-199 pg/mL)	
